Assay results from ChEMBL document CHEMBL1201862, “PubChem BioAssay data set” (2004).
The source made the active and inactive calls.

Legend:
Cytochrome P450 2C9 [1] = molecular target: T1, Cytochrome P450 2C9 (Homo sapiens, UniProt P11712)
[2] = NIH-3T3 fibroblast cytotoxicity, dose response, cytotoxicity control, cell-based, fluorescence, Alamar Blue, secondary assay (AID 2327); format: functional;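 also: NIH-3T3 mouse fibroblasts cultured with fluconazole at 8 µg/mL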
[3] = C. albicans growth with fluconazole, confirmation, fluorescence, retest (AID 2467); format: functional, cell-based
[4] = molecular target: T2, Serine/threonine-protein phosphatase (Candida dubliniensis (strain CD36 / CBS 7987 / NCPF 3949 / NRRLY-17841) (Yeast), UniProt B9W6M3); assay: calcineurin pathway inhibitors in yeast reporter, dose response, S. cerevisiae, CDRE-lacZ, luminescence, secondary (AID 2388); format: functional, cell-based;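 also: yeast reporter cells carrying a calcineurin-responsive lacZ construct stimulated with calcium chloride; luminescent beta-galactosidase reporter signal in whole cells rather than isolated phosphatase activity; potency for inhibition where a drop in reporter signal means calcineurin blockade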
T2 sequence (B9W6M3 whole entry): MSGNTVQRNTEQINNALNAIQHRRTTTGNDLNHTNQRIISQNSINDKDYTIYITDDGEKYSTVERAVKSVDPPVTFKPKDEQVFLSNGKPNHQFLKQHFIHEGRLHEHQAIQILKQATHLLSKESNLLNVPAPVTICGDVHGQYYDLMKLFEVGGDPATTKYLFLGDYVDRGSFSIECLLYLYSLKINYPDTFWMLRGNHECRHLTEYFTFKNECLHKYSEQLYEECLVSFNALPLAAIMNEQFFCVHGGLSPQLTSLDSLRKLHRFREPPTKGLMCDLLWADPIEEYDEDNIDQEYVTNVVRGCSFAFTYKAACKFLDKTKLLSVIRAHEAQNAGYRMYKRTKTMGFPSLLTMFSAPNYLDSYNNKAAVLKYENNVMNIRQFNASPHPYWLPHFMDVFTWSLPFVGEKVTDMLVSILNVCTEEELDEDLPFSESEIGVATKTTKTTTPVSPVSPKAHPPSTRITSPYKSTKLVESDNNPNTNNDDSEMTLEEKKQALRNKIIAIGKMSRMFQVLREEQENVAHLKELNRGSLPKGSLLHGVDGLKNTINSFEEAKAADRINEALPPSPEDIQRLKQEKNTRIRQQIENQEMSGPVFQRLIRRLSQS

[5] = molecular target: ATP-dependent molecular chaperone HSP82 (Candida albicans (strain WO-1) (Yeast), UniProt C4YTQ8); assay: loss of DOC-induced GRE-beta-galactosidase reporter signal, dose response, Hsp90 inhibitor project, S. cerevisiae, luminescence (AID 2400); format: functional, cell-based;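 also: beta-galactosidase luminescence from glucocorticoid response element reporter as proxy for Hsp90 function; inhibitor potency where signal loss means Hsp90 inhibition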
Sequence of ATP-dependent molecular chaperone HSP82 (C4YTQ8 whole entry): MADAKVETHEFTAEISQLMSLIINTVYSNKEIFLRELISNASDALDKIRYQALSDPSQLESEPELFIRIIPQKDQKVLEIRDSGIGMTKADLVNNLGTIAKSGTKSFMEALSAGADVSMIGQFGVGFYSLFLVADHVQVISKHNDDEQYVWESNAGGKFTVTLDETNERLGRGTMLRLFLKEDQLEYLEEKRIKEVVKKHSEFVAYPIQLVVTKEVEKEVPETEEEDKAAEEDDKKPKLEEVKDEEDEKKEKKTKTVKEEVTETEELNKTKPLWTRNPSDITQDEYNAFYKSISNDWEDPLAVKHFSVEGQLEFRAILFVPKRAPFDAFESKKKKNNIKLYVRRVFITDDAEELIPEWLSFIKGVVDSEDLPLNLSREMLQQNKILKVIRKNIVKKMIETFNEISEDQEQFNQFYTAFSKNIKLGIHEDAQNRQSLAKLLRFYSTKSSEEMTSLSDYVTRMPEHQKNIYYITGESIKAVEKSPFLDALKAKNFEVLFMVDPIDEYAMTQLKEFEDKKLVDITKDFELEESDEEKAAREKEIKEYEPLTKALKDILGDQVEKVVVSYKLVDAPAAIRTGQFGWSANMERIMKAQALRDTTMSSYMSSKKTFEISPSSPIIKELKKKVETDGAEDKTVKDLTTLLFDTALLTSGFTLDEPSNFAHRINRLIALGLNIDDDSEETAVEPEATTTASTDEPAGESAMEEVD

[6] = molecular target: T3, Polyadenylate-binding protein 1 (Homo sapiens, UniProt P11940); assay: PABP1 MLLE–PAM2 interaction inhibitors, dose response, miRNA deadenylation inhibitor project, biochemical, fluorescence polarization, Cy5-PAM2 peptide, secondary (AID 602260); format: functional; settings: read-out: IC50_Mean
T3 sequence (P11940 whole entry): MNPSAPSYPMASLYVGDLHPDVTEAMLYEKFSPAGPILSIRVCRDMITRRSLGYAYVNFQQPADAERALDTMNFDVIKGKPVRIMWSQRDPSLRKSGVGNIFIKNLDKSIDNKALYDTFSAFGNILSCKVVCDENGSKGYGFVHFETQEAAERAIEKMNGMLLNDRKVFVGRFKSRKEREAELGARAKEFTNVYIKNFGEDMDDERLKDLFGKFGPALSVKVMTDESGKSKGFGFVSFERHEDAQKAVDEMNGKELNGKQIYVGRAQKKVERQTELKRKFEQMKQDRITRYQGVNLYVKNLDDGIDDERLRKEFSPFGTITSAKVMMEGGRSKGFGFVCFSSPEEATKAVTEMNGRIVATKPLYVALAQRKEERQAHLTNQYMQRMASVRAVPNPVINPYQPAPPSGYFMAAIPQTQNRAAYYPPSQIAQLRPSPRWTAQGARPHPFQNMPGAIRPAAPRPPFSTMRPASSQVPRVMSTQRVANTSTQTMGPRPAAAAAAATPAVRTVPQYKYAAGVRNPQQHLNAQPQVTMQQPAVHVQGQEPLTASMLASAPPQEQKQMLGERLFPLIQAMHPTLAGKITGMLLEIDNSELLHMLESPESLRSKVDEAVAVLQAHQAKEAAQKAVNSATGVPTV

[7] = molecular target: T3, Polyadenylate-binding protein 1; assay: PABP1 MLLE–PAM2 binding inhibitor potency, dose response, biochemical, fluorescence polarization, FITC-PAM2 peptide (AID 602259); format: functional; settings: read-out: IC50_Mean
Escherichia coli = assay: microbe, parasite or virus in culture
Vero [8] = assay: cells; format: functional, cell-based; settings: Chlorocebus sabaeus
Nonstructural protein 1 = Nonstructural protein 1 (Influenza A virus, UniProt Q194T2); format: functional, Influenza A virus (A/California/07/2009(H1N1))
Sequence of Nonstructural protein 1 (Q194T2 whole entry): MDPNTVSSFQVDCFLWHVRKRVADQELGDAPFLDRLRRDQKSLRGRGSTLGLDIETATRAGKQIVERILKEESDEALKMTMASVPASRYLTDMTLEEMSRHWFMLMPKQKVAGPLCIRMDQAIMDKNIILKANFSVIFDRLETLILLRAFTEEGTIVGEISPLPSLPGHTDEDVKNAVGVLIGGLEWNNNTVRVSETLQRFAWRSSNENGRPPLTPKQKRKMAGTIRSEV

Cytochrome P450 3A4 = Cytochrome P450 3A4 (Homo sapiens, UniProt P08684);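 also: CYP3A4 tested as one member of a cytochrome P450 panel screen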
Sequence of Cytochrome P450 3A4 (P08684 whole entry): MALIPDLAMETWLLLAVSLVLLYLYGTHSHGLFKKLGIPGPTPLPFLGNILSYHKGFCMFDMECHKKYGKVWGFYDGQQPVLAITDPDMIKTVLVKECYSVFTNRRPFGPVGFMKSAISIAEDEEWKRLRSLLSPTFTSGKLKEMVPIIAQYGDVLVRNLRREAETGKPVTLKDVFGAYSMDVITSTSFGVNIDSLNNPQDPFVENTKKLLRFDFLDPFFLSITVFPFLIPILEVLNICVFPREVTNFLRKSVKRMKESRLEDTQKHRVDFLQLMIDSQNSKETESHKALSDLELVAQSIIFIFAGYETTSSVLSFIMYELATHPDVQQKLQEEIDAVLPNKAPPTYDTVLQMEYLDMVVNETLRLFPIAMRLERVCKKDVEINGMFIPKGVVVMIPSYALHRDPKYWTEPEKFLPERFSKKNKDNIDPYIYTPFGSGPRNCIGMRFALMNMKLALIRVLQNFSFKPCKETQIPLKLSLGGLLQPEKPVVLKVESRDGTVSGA

[9] = inhibitors of firefly luciferase expression or activity, dose response, H4 neuroglioma cells, luminescence (AID 1990); format: functional, cell-based
BJ [10] = assay: cytotoxicity toward BJ-TERT fibroblasts, dose response, cell-based, RAS-independent, luminescence (AID 1933); format: functional; settings: Homo sapiens
[11] = Luminescence Cell-Based Dose Response HTS to Identify Inhibitors of 5'UTR Stem-Loop Driven Prion Protein mRNA Translation in H4 Neuroglioblastoma Cells. [Related pubchem assays: 1827 (Project Summary), 1813 (Primary HTS)]; format: functional
[12] = inhibitors of SNCA 5'UTR-driven reporter translation, confirmation, H4 neuroglioma cells, luminescence (AID 1988); format: functional, cell-based
BJ [13] = assay: cells; format: functional, cell-based; settings: Homo sapiens
BJ [14] = assay: cytotoxicity toward BJ-TERT-LT-ST fibroblasts, dose response, cell-based, RAS-independent, luminescence (AID 1935); format: functional; settings: Homo sapiens;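 also: BJ fibroblasts immortalized with TERT plus LT and ST oncogenes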
[15] = cytotoxicity toward DRD oncogenic fibroblasts, dose response, cell-based, non-viral oncogenic, luminescence (AID 1934); format: functional; settings: Homo sapiens
Cytochrome P450 2D6 = Cytochrome P450 2D6 (Homo sapiens, UniProt P10635);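 also: CYP2D6 member of a cytochrome P450 panel assay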
Sequence of Cytochrome P450 2D6 (P10635 whole entry): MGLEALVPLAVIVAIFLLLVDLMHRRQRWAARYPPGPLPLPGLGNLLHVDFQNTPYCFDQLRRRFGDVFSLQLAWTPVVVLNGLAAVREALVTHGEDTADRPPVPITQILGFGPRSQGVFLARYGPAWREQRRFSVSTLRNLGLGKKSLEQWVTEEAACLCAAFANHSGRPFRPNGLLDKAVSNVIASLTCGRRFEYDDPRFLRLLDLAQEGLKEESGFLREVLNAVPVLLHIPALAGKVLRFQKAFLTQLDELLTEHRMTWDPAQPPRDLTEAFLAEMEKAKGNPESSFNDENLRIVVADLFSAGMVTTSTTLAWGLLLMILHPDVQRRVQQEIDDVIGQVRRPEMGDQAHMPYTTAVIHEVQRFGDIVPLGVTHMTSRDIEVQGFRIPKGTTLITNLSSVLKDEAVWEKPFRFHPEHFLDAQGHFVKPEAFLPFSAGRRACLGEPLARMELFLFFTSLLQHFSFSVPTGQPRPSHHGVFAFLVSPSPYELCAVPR

[16] = inhibitors of intracellular T. cruzi replication, confirmation, NIH3T3 host cells, beta-gal luminescence (AID 2044); format: functional, cell-based;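 also: intracellular parasites grown in NIH/3T3 mouse fibroblasts as host cells; luminescent beta-galactosidase reporter signal from transgenic T. cruzi replicating inside host cells; inhibitors lower the luminescence signal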
[17] = cytotoxicity toward NIH3T3 fibroblasts, dose response, counter-screen, cell-based, ATP luminescence, mouse fibroblasts (AID 2010); format: functional;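 also: cells exposed to compound for about 90 hours before reading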
INS1 = assay: beta cell apoptosis inhibitors, cytokine rescue, dose response, luminescence, retest (AID 449756); format: functional, cell-based; settings: Rattus norvegicus;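 also: cell death triggered by IL-1 beta plus TNF-alpha plus IFN-gamma mixture; protective hits raise ATP signal compared with cytokine alone wells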
Vero [18] = assay: cells; format: functional; settings: Chlorocebus sabaeus
Cytochrome P450 2C19 = Cytochrome P450 2C19 (Homo sapiens, UniProt P33261); assay: Cytochrome panel assay with activity outcomes. Panel member name: p450-cyp2c19 Compounds with AC50 equal or less than 10 uM are considered active; format: functional; settings: read-out: AC50
Sequence of Cytochrome P450 2C19 (P33261 whole entry): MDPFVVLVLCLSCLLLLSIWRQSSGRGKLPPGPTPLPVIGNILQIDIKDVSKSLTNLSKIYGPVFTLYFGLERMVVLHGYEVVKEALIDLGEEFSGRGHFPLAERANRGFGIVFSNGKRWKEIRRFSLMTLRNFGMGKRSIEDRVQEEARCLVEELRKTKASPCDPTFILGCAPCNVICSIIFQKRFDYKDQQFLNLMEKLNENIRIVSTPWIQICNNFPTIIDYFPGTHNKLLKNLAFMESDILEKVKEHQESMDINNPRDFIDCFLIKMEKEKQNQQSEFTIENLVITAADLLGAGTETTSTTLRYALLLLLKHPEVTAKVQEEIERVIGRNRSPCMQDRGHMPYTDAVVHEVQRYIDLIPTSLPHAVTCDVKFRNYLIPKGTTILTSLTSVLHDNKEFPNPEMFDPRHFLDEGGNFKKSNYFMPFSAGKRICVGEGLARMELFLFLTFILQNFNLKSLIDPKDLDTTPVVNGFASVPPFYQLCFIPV

Cytochrome P450 2C9 [19] = molecular target: T1, Cytochrome P450 2C9; remark: listed apart in the source
[20] = molecular target: T4, Corticotropin-releasing factor receptor 2/Corticotropin-releasing factor-binding protein (Homo sapiens, UniProt P24387+Q13324); assay: Dose Response confirmation of uHTS hits for small molecule antagonists of the CRF-binding protein and CRF-R2 receptor complex.; format: functional; settings: read-out: IC50_Mean
T4 sequence (Q13324 whole entry): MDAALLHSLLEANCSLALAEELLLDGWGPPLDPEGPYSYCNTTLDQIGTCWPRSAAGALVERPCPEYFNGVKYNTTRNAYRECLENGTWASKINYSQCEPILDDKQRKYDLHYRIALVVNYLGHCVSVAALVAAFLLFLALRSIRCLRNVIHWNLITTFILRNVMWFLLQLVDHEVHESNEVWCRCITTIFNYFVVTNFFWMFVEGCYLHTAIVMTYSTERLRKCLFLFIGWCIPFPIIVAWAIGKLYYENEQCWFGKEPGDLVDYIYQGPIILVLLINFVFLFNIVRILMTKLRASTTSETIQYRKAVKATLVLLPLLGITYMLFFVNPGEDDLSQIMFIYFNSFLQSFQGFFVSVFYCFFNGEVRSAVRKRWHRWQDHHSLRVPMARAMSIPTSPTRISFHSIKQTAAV
T4 sequence (P24387 whole entry): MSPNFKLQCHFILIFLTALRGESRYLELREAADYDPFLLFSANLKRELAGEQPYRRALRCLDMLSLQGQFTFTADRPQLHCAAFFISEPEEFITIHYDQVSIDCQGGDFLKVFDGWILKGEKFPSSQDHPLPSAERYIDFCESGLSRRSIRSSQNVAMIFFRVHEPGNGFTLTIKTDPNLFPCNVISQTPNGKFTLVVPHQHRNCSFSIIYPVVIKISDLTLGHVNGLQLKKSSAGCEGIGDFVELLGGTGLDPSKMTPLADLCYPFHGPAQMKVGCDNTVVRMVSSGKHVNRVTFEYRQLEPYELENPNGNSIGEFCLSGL

[21] = molecular target: T4, Corticotropin-releasing factor receptor 2/Corticotropin-releasing factor-binding protein; assay: activators of CRF receptor 2 with binding protein – uHTS hits, confirmation (AID 602473); format: functional; settings: read-out: EC50_Mean
[22] = microbe, parasite or virus in culture; format: functional; settings: Mycobacterium tuberculosis
[23] = THP-1 cell cytotoxicity, dose response, cytotoxicity control for non-replicating M. tuberculosis project (AID 489025); format: functional
[24] = HepG2 cell cytotoxicity, dose response, cytotoxicity control for non-replicating M. tuberculosis project (AID 489018); format: functional; settings: Mycobacterium tuberculosis
cells = format: functional

T1 sequence (P11712 whole entry): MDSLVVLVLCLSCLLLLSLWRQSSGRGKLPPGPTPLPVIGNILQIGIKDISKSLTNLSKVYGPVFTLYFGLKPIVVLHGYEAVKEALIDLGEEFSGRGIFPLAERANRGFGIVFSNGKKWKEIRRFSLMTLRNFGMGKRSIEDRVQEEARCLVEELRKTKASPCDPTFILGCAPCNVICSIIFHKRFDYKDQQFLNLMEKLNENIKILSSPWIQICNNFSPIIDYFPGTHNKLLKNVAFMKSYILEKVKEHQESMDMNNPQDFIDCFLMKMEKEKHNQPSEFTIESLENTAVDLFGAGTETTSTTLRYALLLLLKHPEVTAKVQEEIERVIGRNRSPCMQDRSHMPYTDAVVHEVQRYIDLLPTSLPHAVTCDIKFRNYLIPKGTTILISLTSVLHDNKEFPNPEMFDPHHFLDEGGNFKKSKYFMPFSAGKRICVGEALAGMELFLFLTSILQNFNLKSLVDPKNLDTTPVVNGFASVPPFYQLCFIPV

## CCCCCCCCCCCCCCCCCC(=O)O[C@H](CC(=O)O)C[N+](C)(C)C
Cytochrome P450 2C9 [1]
  AC50: inconclusive

## CCCCc1c(O)n(-c2ccccc2OC)c(SCC(=O)Nc2cccc3ccccc23)nc1=O
[2]
  EC50: > 160 µM (inconclusive)
[3]
  EC50: 2.03 µM (active)
[4]
  EC50: > 180 µM (inactive)
[5]
  EC50: > 160 µM (inactive)
[6]
  IC50: > 66 µM (inactive)
[7]
  IC50: > 66 µM (inactive)

## CC(=O)NC1=NN(C(C)=O)C2(S1)C(=O)N(C(C)C)c1ccc(C)cc12 (stereo not drawn)
Escherichia coli
  AC50: > 150 µM (inactive)

## COCCNCC(=O)NC12CC3CC(CC(C3)C1)C2
Vero [8]
  IC50: 16.2 µM (active)

## COc1cccc(NC(=O)c2cccc(C(=O)Nc3cccc(OC)c3)n2)c1
Escherichia coli
  AC50: 32.4 µM (active)

## NC(=O)C1CCN(c2oc(-c3ccccc3)nc2S(=O)(=O)c2ccc(Br)cc2)CC1
Nonstructural protein 1
  IC50: > 100 µM (active)

## CC1CCN(C2=C(NS(=O)(=O)c3ccc(Br)cc3)C(=O)c3ccccc3C2=O)CC1
Nonstructural protein 1
  IC50: 10.8 µM (active)

## O=C(O)C1CCC(=O)N(C2CC2)C1c1ccccc1 (stereo not drawn)
Cytochrome P450 3A4
  AC50: inconclusive

## CN(C)c1ncc2nc(-c3ccc(F)cc3)c(=O)n(Cc3ccc(F)cc3)c2n1
Cytochrome P450 3A4
  AC50: inconclusive
Cytochrome P450 2C9 [1]
  AC50: inconclusive

## O=S(=O)(c1ccccc1)N1CCC2(CCN(C(c3ccccc3)c3ccccc3)CC2)CC1
Cytochrome P450 3A4
  AC50: inconclusive

## CCOC(=O)C1C(=O)C=C(c2ccc(C)cc2)CC1c1ccco1 (stereo not drawn)
Cytochrome P450 3A4
  AC50: inconclusive

## Cn1c(=O)c2c(nc(NN/C=C3/C(=O)NC(=S)N(c4ccccc4)C3=O)n2C)n(C)c1=O
Nonstructural protein 1
  IC50: 20.9 µM (active)

## CN1CCN(c2ccc([N+](=O)[O-])cc2C(=O)c2ccc(Br)cc2)CC1
[9]
  EC50: 11.6 µM (active)
BJ [10]
  EC50: 4.96 µM (active)
[11]
  EC50: 12.6 µM (active)
[12]
  EC50: 4.21 µM (active)
BJ [13]
  EC50: 28.9 µM (active)
BJ [14]
  EC50: 5.07 µM (inconclusive)
[15]
  EC50: 4.11 µM (active)

## COc1ccccc1NC(=O)CN1CCC(C(=O)c2ccc(F)cc2)CC1
Cytochrome P450 2D6
  AC50: 25.1 µM (inconclusive)
Cytochrome P450 2C9 [1]
  AC50: inconclusive

## Cc1cc(C(=O)OCC(=O)NCc2ccco2)c(C)n1-c1ccc(F)cc1
[9]
  EC50: > 120 µM (not active)
BJ [10]
  EC50: 9.71 µM (inconclusive)
[11]
  EC50: 9.52 µM (active)
[12]
  EC50: 4.93 µM (active)
BJ [13]
  EC50: 36 µM (active)
BJ [14]
  EC50: 4.61 µM (active)
[15]
  EC50: 16.7 µM (active)

## CCCCc1ccc(NC(=N)Nc2nc(C)cc(C)n2)cc1
[16]
  EC50: 1.71 µM (active)
[17]
  EC50: 9.01 µM (active)
INS1
  AC50: 4.27 µM (active)
Vero [18]
  CC50: 7.63 µM (active)

## Cc1ccc(S(=O)(=O)Oc2ccc(/C=C(/NC(=O)c3ccccc3)C(=O)Nc3ccccc3)cc2)cc1
Cytochrome P450 2C19
  AC50: 0.316 µM (inconclusive)
Cytochrome P450 2C9 [19]
  AC50: 0.316 µM (inconclusive)
Cytochrome P450 3A4
  AC50: inconclusive

## CC1C(=O)C(C)C(c2ccc(Br)cc2)NC1c1ccc(Br)cc1 (stereo not drawn)
[16]
  EC50: 1.11 µM (active)
[17]
  EC50: > 60 µM (not active)
Vero [18]
  CC50: > 25 µM (active)

## C=CCn1c(N)nc2ccccc21
[2]
  EC50: > 160 µM (inactive)
[3]
  EC50: 1.55 µM (active)
[4]
  EC50: > 180 µM (inactive)
[5]
  EC50: > 160 µM (inactive)

## C=CCc1cccc2cc(C(=O)N(CC)CC)c(=O)oc12
Cytochrome P450 2C19
  AC50: 28.2 µM (inconclusive)
Cytochrome P450 2C9 [1]
  AC50: inconclusive

## c1ccc(COc2nsnc2N2CCOCC2)cc1
Nonstructural protein 1
  IC50: > 100 µM (active)

## CCOC(=O)c1c(NC(=O)c2c(-c3ccccc3)noc2C)sc(C)c1-c1ccccc1
[16]
  EC50: 0.805 µM (active)
[17]
  EC50: 12.5 µM (active)
Vero [8]
  IC50: < 0.05 µM (active)

## O=C(CCCc1ccccc1)N1CCN(c2ccc([N+](=O)[O-])cc2)CC1
[20]
  IC50: > 47.1 µM (inactive)
[21]
  EC50: > 53 µM (inactive)
Cytochrome P450 3A4
  AC50: inconclusive

## O=S(=O)(c1ccc(Cl)cc1)N1CCN(C(=S)Nc2ccc(F)c(Cl)c2)CC1
Vero [8]
  IC50: > 25 µM (active)
Vero [18]
  CC50: > 25 µM (active)

## CC1=NN(C(=O)c2ccc(Br)cc2)C(O)(c2ccccc2)C1 (stereo not drawn)
[22]
  CC50: > 40 µM (active)
[23]
  CC50: 22.1 µM (active)
[24]
  CC50: > 20 µM (active)
cells
  IC50: 22.4 µM (active)

## C=CC/N=c1/scc(-c2ccccc2)n1/N=C/c1ccccn1
Vero [8]
  IC50: 0.98 µM (active)

## CCCNc1nc(NCC)nc(OC)n1
Cytochrome P450 2C19
  AC50: 17.8 µM (inconclusive)
Cytochrome P450 2C9 [1]
  AC50: inconclusive

## O=C1CN(S(=O)(=O)c2ccccc2C(F)(F)F)CCN1
Escherichia coli
  AC50: 28.5 µM (active)

## O=C(c1ccc([N+](=O)[O-])o1)N1CCc2ccccc21
Vero [18]
  CC50: > 25 µM (active)
